{"source": "patent US20210386071A1", "about": "“ANTI-NON-ENVELOPED VIRUS AGENT AND COMPOSITION CONTAINING SAME, AND ANTI-VIRAL PRODUCT AND METHOD FOR PRODUCING SAME” (TOAGOSEI CO., LTD., priority 2018, published 2021)", "system": "feline calicivirus", "experiment": "Antiviral activity value (Mv) by methods of JIS L 1922, plaque count measurement of virus infectivity", "protocol": "The performance of each of the above antiviral agents was evaluated by applying methods shown in JIS L 1922 (antiviral property test method of fiber product), and an antiviral activity value (Mv) obtained was used to determine the antiviral property. […] Purified water was added to the antiviral agent so that its concentration was 0.1% by mass. Next, 100 μL of feline calicivirus solution having a virus infectivity of 1 to 5×10^7 PFU/mL was added to 900 μL of the above liquid, and a mixed liquid was allowed to stand at a temperature of 25° C. for 2 hours. Thereafter, the mixed liquid was recovered, and the recovered liquid was subjected to a plaque count measurement method to measure the virus infectivity. The virus infectivity was measured in the same manner as the test sample except that 900 μL of phosphate buffered saline (PBS) was used as a control sample instead of the test sample. The performance of the antiviral agent was evaluated by the antiviral activity value (Mv) obtained by the following formula. Mv=Log (virus infectivity of control sample)−Log (virus infectivity of test sample)", "data": [{"smiles": "[Ca+2].[OH-].[OH-]", "note": "[V3, calcium hydroxide]", "values": [{"measurement": "Antiviral activity value Mv", "value": 4.2}, {"measurement": "antiviral properties (assessment in words)", "value": "excellent antiviral properties"}]}]}
